{"source": "patent US12077503B2", "about": "“Substituted cyclic amides and their use as herbicides” (FMC CORPORATION, priority 2015, dated 2024)", "format_in_all_cases": "in vivo", "key": {"[1]": {"test_system": "barnyardgrass (Echinochloa crus-galli)", "test": "Test B flooded paddy test", "conditions": "Echinochloa crus-galli, 250 g ai/ha, Flood; 0 to 100 scale where 0 is no effect and 100 is complete control; read-out: Barnyardgrass plant response rating", "method_in_brief": "(§1)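 Response scored visually against untreated controls, 0 = no effect and 100 = complete control, 13–15 d after treatment in the greenhouse. Compounds added to paddy water held 3 cm above soil surface. Treatment given at 2-leaf stage.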"}, "[2]": {"test_system": "ducksalad (Heteranthera limosa)", "test": "Test B flooded paddy test", "conditions": "Heteranthera limosa, 250 g ai/ha, Flood; 0 to 100 scale where 0 is no effect and 100 is complete control; read-out: Ducksalad plant response rating", "method_in_brief": "as §1"}, "[3]": {"test_system": "sedge, umbrella (small-flower umbrella sedge, Cyperus difformis)", "test": "Test B flooded paddy test", "conditions": "Cyperus difformis, 250 g ai/ha, Flood; 0 to 100 scale where 0 is no effect and 100 is complete control; read-out: Sedge, Umbrella plant response rating", "method_in_brief": "as §1"}, "[4]": {"test_system": "rice (Oryra sativa)", "test": "Test B flooded paddy test", "conditions": "Oryza sativa, 250 g ai/ha, Flood; 0 to 100 scale where 0 is no effect and 100 is complete control; read-out: Rice plant response rating", "method_in_brief": "as §1"}, "[5]": {"test_system": "ryegrass, Italian (Italian ryegrass, Lolium multiflorum)", "test": "Test A postemergence", "conditions": "Lolium multiflorum, post-emergence, 240 h", "method_in_brief": "(§2)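 Ratings of 0 (no effect) to 100 (complete control) come from visual comparison with untreated controls roughly 10 d after treatment. Test chemicals, formulated in a non-phytotoxic solvent mixture with surfactant, were applied either as a preemergence directed soil spray on seeded soil or postemergence to one- to two-leaf plants 2 to 10 cm tall.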"}, "[6]": {"test_system": "barnyardgrass (Echinochloa crus-galli)", "test": "Test A postemergence", "conditions": "Echinochloa crus-galli, post-emergence, 240 h", "method_in_brief": "as §2"}, "[7]": {"test_system": "blackgrass (Alopecurus myosuroides)", "test": "Test A postemergence", "conditions": "Alopecurus myosuroides, post-emergence, 240 h", "method_in_brief": "as §2"}, "[8]": {"test_system": "giant foxtail (Setaria faberii)", "test": "Test A postemergence", "conditions": "Setaria faberi, post-emergence, 240 h", "method_in_brief": "as §2"}, "[9]": {"test_system": "pigweed (Amaranthus retroflexus)", "test": "Test A postemergence", "conditions": "Amaranthus retroflexus, post-emergence, 240 h", "method_in_brief": "as §2"}, "[10]": {"test_system": "Kochia (Kochia scoparia)", "test": "Test A postemergence", "conditions": "Bassia scoparia, post-emergence, 240 h", "method_in_brief": "as §2"}, "[11]": {"test_system": "wheat (Triticum aestivum)", "test": "Test A postemergence", "conditions": "Triticum aestivum, post-emergence, 240 h", "method_in_brief": "as §2"}, "[12]": {"test_system": "Galium (catchweed bedstraw, Galium aparine)", "test": "Test A postemergence", "conditions": "Galium, post-emergence, 240 h", "method_in_brief": "as §2"}, "[13]": {"test_system": "ragweed (common ragweed, Ambrosia elatior)", "test": "Test A postemergence", "conditions": "Ambrosia artemisiifolia, post-emergence, 240 h", "method_in_brief": "as §2"}, "[14]": {"test_system": "corn (Zea mays)", "test": "Test A postemergence", "conditions": "Zea mays, post-emergence, 240 h", "method_in_brief": "as §2"}, "[15]": {"test_system": "ryegrass, Italian (Italian ryegrass, Lolium multiflorum)", "test": "Test A preemergence", "conditions": "Lolium multiflorum, pre-emergence, 240 h, 0 to 100 scale where 0 is no effect and 100 is complete control, read-out: Ryegrass, Italian plant response rating", "method_in_brief": "as §2"}, "[16]": {"test_system": "barnyardgrass (Echinochloa crus-galli)", "test": "Test A preemergence", "conditions": "Echinochloa crus-galli, pre-emergence, 240 h, 0 to 100 scale where 0 is no effect and 100 is complete control, read-out: Barnyardgrass plant response rating", "method_in_brief": "as §2"}, "[17]": {"test_system": "giant foxtail (Setaria faberii)", "test": "Test A preemergence", "conditions": "Setaria faberi, pre-emergence, 240 h, 0 to 100 scale where 0 is no effect and 100 is complete control, read-out: Foxtail, Giant plant response rating", "method_in_brief": "as §2"}, "[18]": {"test_system": "pigweed (Amaranthus retroflexus)", "test": "Test A preemergence", "conditions": "Amaranthus retroflexus, pre-emergence, 240 h, 0 to 100 scale where 0 is no effect and 100 is complete control, read-out: Pigweed plant response rating"}, "[19]": {"test_system": "Kochia (Kochia scoparia)", "test": "Test A preemergence", "conditions": "Bassia scoparia, pre-emergence, 240 h, 0 to 100 scale where 0 is no effect and 100 is complete control, read-out: Kochia plant response rating", "method_in_brief": "as §2"}, "[20]": {"test_system": "ragweed (common ragweed, Ambrosia elatior)", "test": "Test A preemergence", "conditions": "Ambrosia artemisiifolia, pre-emergence, 240 h, 0 to 100 scale where 0 is no effect and 100 is complete control, read-out: Ragweed plant response rating", "method_in_brief": "as §2"}, "[21]": {"conditions": "125 g ai/ha, preemergence, approx. 10 d"}}}
{"smiles": "CN1CC(c2cccc(C(F)(F)F)c2)C(C(=O)Nc2ccccc2C(C)(C)O)C1=O", "note": "(stereo not drawn) [Compound 1146]", "values": [{"measurement": "pest or weed control at 250 g/ha", "setting": "[1]", "value": 45, "unit": "%"}, {"measurement": "pest or weed control at 250 g/ha", "setting": "[2]", "value": 0, "unit": "%"}, {"measurement": "pest or weed control at 250 g/ha", "setting": "[3]", "value": 50, "unit": "%"}, {"measurement": "pest or weed control at 250 g/ha", "setting": "[4]", "value": 0, "unit": "%"}, {"measurement": "pest or weed control at 125 g/ha", "setting": "[5]; 125 g ai/ha, postemergence, visual injury vs untreated controls after approx. 10 d, 0 = no effect, 100 = complete control, read-out: Ryegrass, Italian plant response rating (0 to 100 scale)", "value": 0, "unit": "%"}, {"measurement": "pest or weed control at 31 g/ha", "setting": "[5]; Postemergence, 31 g ai/ha, visual injury after approx. 10 d, 0 to 100 scale, 0 no effect, 100 complete control, read-out: Plant response rating, Ryegrass, Italian", "value": 0, "unit": "%"}, {"measurement": "pest or weed control at 125 g/ha", "setting": "[6]; 125 g ai/ha, postemergence, visual injury on 0 to 100 scale (0 no effect, 100 complete control), approx. 10 d, read-out: Barnyardgrass plant response rating", "value": 40, "unit": "%"}, {"measurement": "pest or weed control at 31 g/ha", "setting": "[6]; Postemergence, 31 g ai/ha, visual injury after approx. 10 d, 0 to 100 scale, 0 no effect, 100 complete control, read-out: Plant response rating, Barnyardgrass", "value": 0, "unit": "%"}, {"measurement": "pest or weed control at 125 g/ha", "setting": "[7]; 125 g ai/ha, postemergence, visual injury on 0 to 100 scale (0 no effect, 100 complete control), approx. 10 d, read-out: Blackgrass plant response rating", "value": 0, "unit": "%"}, {"measurement": "pest or weed control at 31 g/ha", "setting": "[7]; Postemergence, 31 g ai/ha, visual injury after approx. 10 d, 0 to 100 scale, 0 no effect, 100 complete control, read-out: Plant response rating, Blackgrass", "value": 0, "unit": "%"}, {"measurement": "pest or weed control at 125 g/ha", "setting": "[8]; 125 g ai/ha, postemergence, visual injury on 0 to 100 scale (0 no effect, 100 complete control), approx. 10 d, read-out: Foxtail, Giant plant response rating", "value": 20, "unit": "%"}, {"measurement": "pest or weed control at 31 g/ha", "setting": "[8]; Postemergence, 31 g ai/ha, visual injury after approx. 10 d, 0 to 100 scale, 0 no effect, 100 complete control, read-out: Plant response rating, Foxtail, Giant", "value": 0, "unit": "%"}, {"measurement": "pest or weed control at 125 g/ha", "setting": "[9]; 125 g ai/ha, postemergence, visual injury vs untreated controls after approx. 10 d, 0 = no effect, 100 = complete control, read-out: Pigweed plant response rating (0 to 100 scale)", "value": 0, "unit": "%"}, {"measurement": "pest or weed control at 31 g/ha", "setting": "[9]; Postemergence, 31 g ai/ha, visual injury after approx. 10 d, 0 to 100 scale, 0 no effect, 100 complete control, read-out: Plant response rating, Pigweed", "value": 0, "unit": "%"}, {"measurement": "pest or weed control at 125 g/ha", "setting": "[10]; 125 g ai/ha, postemergence, visual injury on 0 to 100 scale (0 no effect, 100 complete control), approx. 10 d, read-out: Kochia plant response rating", "value": 0, "unit": "%"}, {"measurement": "pest or weed control at 31 g/ha", "setting": "[10]; Postemergence, 31 g ai/ha, visual injury after approx. 10 d, 0 to 100 scale, 0 no effect, 100 complete control, read-out: Plant response rating, Kochia", "value": 0, "unit": "%"}, {"measurement": "plant injury at 125 g/ha", "setting": "[11]; 125 g ai/ha, postemergence, visual injury vs untreated controls after approx. 10 d, 0 = no effect, 100 = complete control, read-out: Wheat plant response rating (0 to 100 scale)", "value": 0, "unit": "%"}, {"measurement": "plant injury at 31 g/ha", "setting": "[11]; Postemergence, 31 g ai/ha, visual injury after approx. 10 d, 0 to 100 scale, 0 no effect, 100 complete control, read-out: Plant response rating, Wheat", "value": 0, "unit": "%"}, {"measurement": "pest or weed control at 125 g/ha", "setting": "[12]; 125 g ai/ha, postemergence, visual injury on 0 to 100 scale (0 no effect, 100 complete control), approx. 10 d, read-out: Galium plant response rating", "value": 0, "unit": "%"}, {"measurement": "pest or weed control at 31 g/ha", "setting": "[12]; Postemergence, 31 g ai/ha, visual injury after approx. 10 d, 0 to 100 scale, 0 no effect, 100 complete control, read-out: Plant response rating, Galium", "value": 0, "unit": "%"}, {"measurement": "pest or weed control at 125 g/ha", "setting": "[13]; 125 g ai/ha, postemergence, visual injury vs untreated controls after approx. 10 d, 0 = no effect, 100 = complete control, read-out: Ragweed plant response rating (0 to 100 scale)", "value": 0, "unit": "%"}, {"measurement": "pest or weed control at 31 g/ha", "setting": "[13]; Postemergence, 31 g ai/ha, visual injury after approx. 10 d, 0 to 100 scale, 0 no effect, 100 complete control, read-out: Plant response rating, Ragweed", "value": 0, "unit": "%"}, {"measurement": "plant injury at 125 g/ha", "setting": "[14]; 125 g ai/ha, postemergence, visual injury on 0 to 100 scale (0 no effect, 100 complete control), approx. 10 d, read-out: Corn plant response rating", "value": 30, "unit": "%"}, {"measurement": "Corn plant response rating (crop injury, 0 = no effect, 100 = complete kill) at 31 g/ha", "setting": "[14]; Postemergence, 31 g ai/ha, visual injury after approx. 10 d, 0 to 100 scale, 0 no effect, 100 complete control", "value": 0, "unit": "%"}, {"measurement": "pest or weed control at 31 g/ha", "setting": "[15]; 31 g ai/ha, Preemergence", "value": 0, "unit": "%"}, {"measurement": "pest or weed control at 125 g/ha", "setting": "[15]; [21]", "value": 30, "unit": "%"}, {"measurement": "pest or weed control at 31 g/ha", "setting": "[16]; 31 g ai/ha, Preemergence", "value": 50, "unit": "%"}, {"measurement": "pest or weed control at 125 g/ha", "setting": "[16]; [21]", "value": 70, "unit": "%"}, {"measurement": "pest or weed control at 31 g/ha", "setting": "[17]; 31 g ai/ha, Preemergence", "value": 20, "unit": "%"}, {"measurement": "pest or weed control at 125 g/ha", "setting": "[17]; [21]", "value": 80, "unit": "%"}, {"measurement": "pest or weed control at 31 g/ha", "setting": "[18]; 31 g ai/ha, Preemergence", "value": 0, "unit": "%"}, {"measurement": "pest or weed control at 125 g/ha", "setting": "[18]; [21]", "value": 0, "unit": "%"}, {"measurement": "pest or weed control at 31 g/ha", "setting": "[19]; 31 g ai/ha, Preemergence", "value": 0, "unit": "%"}, {"measurement": "pest or weed control at 125 g/ha", "setting": "[19]; [21]", "value": 0, "unit": "%"}, {"measurement": "pest or weed control at 31 g/ha", "setting": "[20]; 31 g ai/ha, Preemergence", "value": 0, "unit": "%"}, {"measurement": "pest or weed control at 125 g/ha", "setting": "[20]; [21]", "value": 0, "unit": "%"}]}
